Data from ChEMBL document CHEMBL3739356, “Combination of 4-anilinoquinazoline, arylurea and tertiary amine moiety to discover novel anticancer agents” (Bioorg Med Chem, 2016).
The source made the active and inactive calls. The rule behind the calls is not given here.

Experiments:
A-431 = assay: Antiproliferative activity against human A431 cells after 72 hrs by MTT assay; format: functional, cell-based; conditions: A-431, 72 h
A549 [1] = assay: Antiproliferative activity against human A549 cells after 72 hrs by MTT assay; format: functional, cell-based; conditions: A549, 72 h
[2] = molecular target: Epidermal growth factor receptor (Homo sapiens, UniProt P00533); assay: Inhibition of wild-type EGFR tyrosine kinase (unknown origin) assessed as ATP level by luminescence analysis
[3] = molecular target: Epidermal growth factor receptor (Homo sapiens, UniProt P00533, L858R); assay: Inhibition of EGFR tyrosine kinase L858R mutant (unknown origin) assessed as ATP level by luminescence analysis; format: protein assay
[4] = molecular target: Vascular endothelial growth factor receptor 2 (Homo sapiens, UniProt P35968); assay: Inhibition of VEGFR-2 (unknown origin) assessed as ATP level by luminescence analysis
A549 [5] = assay: Anticancer activity against human A549 cells xenografted in nude BALB/C mouse assessed as decrease in tumor volume at 50 mg/kg, po qd for 12 days; format: functional, organism-based
Mus musculus = assay: Toxicity in nude BALB/C mouse assessed as weight loss at 50 mg/kg, po qd for 12 days; format: organism-based; conditions: in vivo, 288 h

Epidermal growth factor receptor (Homo sapiens, UniProt P00533, L858R), sequence (P00533 25-1210 L858R limits assumed): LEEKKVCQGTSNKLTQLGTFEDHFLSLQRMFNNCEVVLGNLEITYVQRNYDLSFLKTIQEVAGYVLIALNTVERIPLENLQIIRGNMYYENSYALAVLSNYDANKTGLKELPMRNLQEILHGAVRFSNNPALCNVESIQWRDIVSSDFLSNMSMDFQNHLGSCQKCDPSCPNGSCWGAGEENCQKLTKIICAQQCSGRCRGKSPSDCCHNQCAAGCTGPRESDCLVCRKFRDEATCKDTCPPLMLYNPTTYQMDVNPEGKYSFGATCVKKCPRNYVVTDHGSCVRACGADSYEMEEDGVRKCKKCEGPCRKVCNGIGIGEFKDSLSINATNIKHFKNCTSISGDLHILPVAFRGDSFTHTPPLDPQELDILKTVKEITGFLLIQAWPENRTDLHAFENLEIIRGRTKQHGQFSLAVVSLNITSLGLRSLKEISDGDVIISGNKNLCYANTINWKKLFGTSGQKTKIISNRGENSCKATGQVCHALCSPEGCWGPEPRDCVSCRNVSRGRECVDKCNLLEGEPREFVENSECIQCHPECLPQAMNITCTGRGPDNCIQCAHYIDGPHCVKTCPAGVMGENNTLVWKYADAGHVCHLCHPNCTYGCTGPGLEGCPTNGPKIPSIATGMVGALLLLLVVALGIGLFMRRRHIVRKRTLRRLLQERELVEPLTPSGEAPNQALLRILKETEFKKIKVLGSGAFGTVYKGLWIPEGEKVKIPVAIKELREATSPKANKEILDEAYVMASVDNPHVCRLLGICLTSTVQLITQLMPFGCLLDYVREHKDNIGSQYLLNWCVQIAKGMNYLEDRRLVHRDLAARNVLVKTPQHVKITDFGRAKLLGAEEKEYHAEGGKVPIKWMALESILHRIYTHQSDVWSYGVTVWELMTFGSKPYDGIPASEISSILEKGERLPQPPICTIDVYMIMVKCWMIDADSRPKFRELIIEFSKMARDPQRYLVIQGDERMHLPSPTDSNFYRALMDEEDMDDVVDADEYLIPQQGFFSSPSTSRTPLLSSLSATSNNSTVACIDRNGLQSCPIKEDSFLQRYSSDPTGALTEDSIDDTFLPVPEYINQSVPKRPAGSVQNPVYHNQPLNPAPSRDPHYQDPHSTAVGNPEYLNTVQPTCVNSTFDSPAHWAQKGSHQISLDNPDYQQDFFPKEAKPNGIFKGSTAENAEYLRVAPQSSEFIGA
Vascular endothelial growth factor receptor 2, sequence (P35968 whole entry): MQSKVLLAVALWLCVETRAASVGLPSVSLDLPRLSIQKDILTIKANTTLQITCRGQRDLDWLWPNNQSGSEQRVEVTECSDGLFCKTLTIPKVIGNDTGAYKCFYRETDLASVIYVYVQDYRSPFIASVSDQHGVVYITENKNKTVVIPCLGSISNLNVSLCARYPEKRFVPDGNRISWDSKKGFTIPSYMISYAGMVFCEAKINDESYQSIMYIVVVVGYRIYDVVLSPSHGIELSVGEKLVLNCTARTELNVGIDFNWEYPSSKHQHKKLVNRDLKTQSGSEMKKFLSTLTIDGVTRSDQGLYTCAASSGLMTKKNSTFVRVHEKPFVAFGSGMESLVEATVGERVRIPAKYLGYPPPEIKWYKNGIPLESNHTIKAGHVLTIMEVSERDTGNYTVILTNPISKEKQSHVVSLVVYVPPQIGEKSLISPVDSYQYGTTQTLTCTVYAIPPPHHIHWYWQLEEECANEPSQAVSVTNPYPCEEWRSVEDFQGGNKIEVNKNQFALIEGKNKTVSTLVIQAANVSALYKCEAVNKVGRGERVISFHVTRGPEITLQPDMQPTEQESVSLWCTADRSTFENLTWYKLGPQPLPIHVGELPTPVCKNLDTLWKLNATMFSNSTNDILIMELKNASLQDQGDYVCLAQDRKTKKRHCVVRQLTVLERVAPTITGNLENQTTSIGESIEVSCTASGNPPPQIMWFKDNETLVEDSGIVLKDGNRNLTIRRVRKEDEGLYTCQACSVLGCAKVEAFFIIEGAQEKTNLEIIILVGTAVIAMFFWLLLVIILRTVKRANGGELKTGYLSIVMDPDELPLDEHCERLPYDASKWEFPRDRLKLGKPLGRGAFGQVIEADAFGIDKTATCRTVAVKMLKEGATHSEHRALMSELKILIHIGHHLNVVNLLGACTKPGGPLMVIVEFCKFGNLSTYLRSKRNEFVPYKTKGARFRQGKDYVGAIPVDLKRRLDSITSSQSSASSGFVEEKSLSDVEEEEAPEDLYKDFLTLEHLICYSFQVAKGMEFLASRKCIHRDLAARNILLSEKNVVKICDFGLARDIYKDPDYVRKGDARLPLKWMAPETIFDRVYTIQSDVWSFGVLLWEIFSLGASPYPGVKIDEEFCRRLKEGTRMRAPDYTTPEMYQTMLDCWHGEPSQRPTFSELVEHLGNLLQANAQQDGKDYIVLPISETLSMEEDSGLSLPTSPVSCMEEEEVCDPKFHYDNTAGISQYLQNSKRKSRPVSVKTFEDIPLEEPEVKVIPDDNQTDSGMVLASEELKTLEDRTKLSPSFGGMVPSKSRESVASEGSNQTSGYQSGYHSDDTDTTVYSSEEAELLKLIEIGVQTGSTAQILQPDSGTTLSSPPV
Epidermal growth factor receptor (Homo sapiens, UniProt P00533), sequence (P00533 whole entry): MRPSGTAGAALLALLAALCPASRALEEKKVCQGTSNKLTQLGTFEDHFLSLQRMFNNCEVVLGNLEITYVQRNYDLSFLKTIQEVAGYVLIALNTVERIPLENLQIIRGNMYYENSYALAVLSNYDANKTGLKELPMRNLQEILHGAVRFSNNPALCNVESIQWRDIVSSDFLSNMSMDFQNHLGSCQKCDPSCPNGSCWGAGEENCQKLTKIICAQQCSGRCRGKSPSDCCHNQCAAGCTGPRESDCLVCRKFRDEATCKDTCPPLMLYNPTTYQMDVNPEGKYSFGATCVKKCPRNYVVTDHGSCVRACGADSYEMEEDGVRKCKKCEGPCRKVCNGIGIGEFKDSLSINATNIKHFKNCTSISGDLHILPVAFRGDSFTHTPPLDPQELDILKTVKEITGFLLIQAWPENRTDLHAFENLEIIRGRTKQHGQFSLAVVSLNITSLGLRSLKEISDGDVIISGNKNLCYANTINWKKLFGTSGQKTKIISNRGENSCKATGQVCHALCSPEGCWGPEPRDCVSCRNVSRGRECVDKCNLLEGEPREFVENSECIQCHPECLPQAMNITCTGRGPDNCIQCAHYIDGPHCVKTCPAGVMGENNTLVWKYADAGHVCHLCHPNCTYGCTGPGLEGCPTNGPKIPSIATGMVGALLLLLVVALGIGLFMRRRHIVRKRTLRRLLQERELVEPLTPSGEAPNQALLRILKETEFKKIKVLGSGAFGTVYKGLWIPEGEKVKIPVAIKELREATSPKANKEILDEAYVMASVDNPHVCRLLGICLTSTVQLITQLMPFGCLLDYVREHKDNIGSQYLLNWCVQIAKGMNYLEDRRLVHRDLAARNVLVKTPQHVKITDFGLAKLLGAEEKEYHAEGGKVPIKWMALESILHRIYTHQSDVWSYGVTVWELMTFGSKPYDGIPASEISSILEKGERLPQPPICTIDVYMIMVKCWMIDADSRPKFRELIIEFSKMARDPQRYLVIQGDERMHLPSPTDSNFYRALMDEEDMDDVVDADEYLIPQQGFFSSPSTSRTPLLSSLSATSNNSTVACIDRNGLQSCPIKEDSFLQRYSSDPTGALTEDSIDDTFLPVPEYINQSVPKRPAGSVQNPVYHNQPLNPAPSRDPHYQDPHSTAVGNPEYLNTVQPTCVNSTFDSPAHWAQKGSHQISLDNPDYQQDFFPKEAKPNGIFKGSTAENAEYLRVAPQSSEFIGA

Row | IC50 (A-431) | IC50 (A549 [1]) | SMILES | other results
1 | 2.41 µM | 1.65 µM | CN1CCN(Cc2ccc(NC(=O)Nc3ccc4ncnc(Nc5cccc(C(F)(F)F)c5)c4c3)cc2)CC1 | –
2 | 1.55 µM | 1.05 µM | O=C(Nc1ccc(CN2CCCCC2)cc1)Nc1ccc2ncnc(Nc3cccc(C(F)(F)F)c3)c2c1 | IC50 [2]: 0.005 µM; IC50 [3]: 0.0105 µM
3 | 1.33 µM | 1.06 µM | O=C(Nc1cccc(CN2CCCCC2)c1)Nc1ccc2ncnc(Nc3cccc(C(F)(F)F)c3)c2c1 | –
4 | > 10 µM | > 10 µM | C[C@@H](Nc1ncnc2ccc(NC(=O)Nc3ccc(CN4CCN(C)CC4)cc3)cc12)c1ccccc1 | –
5 | > 10 µM | > 10 µM | CN1CCN(C(=O)c2ccc(NC(=O)Nc3ccc4ncnc(Nc5ccc(F)c(Cl)c5)c4c3)cc2)CC1 | –
6 | > 10 µM | > 10 µM | O=C(Nc1ccc(C(=O)N2CCOCC2)cc1)Nc1ccc2ncnc(Nc3ccc(F)c(Cl)c3)c2c1 | –
7 | > 10 µM | 8.31 µM | CN1CCN(C(=O)c2ccc(NC(=O)Nc3ccc4ncnc(Nc5cccc(C(F)(F)F)c5)c4c3)cc2)CC1 | –
8 | > 10 µM | > 10 µM | CN1CCN(CCNC(=O)Nc2ccc3ncnc(Nc4cccc(C(F)(F)F)c4)c3c2)CC1 | –
9 | 1.36 µM | 0.83 µM | O=C(Nc1ccc(CN2CCCC2)cc1)Nc1ccc2ncnc(Nc3cccc(C(F)(F)F)c3)c2c1 | IC50 [2]: 0.0041 µM; IC50 [3]: 0.0115 µM; IC50 [4]: 0.565 µM; Activity (A549 [5]): Active; Activity (Mus musculus): Non-toxic
10 | 1.03 µM | 1.12 µM | CN(C)Cc1ccc(NC(=O)Nc2ccc3ncnc(Nc4cccc(C(F)(F)F)c4)c3c2)cc1 | –
11 | 2.01 µM | 3.57 µM | COc1ccc(Nc2ncnc3ccc(NC(=O)Nc4ccc(CN5CCN(C)CC5)cc4)cc23)cc1Cl | –
12 | 0.64 µM | 0.9 µM | CN1CCN(Cc2ccc(NC(=O)Nc3ccc4ncnc(Nc5ccc(OCc6cccc(F)c6)c(Cl)c5)c4c3)cc2)CC1 | IC50 [4]: > 1 µM
13 | 4.95 µM | 9.47 µM | COc1ccc(NC(=O)Nc2ccc3ncnc(Nc4cccc(C(F)(F)F)c4)c3c2)cc1 | –
14 | 2.2 µM | 2.76 µM | CN1CCN(c2ccc(NC(=O)Nc3ccc4ncnc(Nc5cccc(C(F)(F)F)c5)c4c3)cc2)CC1 | –

Further lines, the compound ahead of its results:

Row | SMILES | IC50 (A-431) | IC50 (A549 [1]) | other results
15 | Cc1ccc(NC(=O)Nc2ccc3ncnc(Nc4cccc(C(F)(F)F)c4)c3c2)cc1 | > 10 µM | 4.14 µM | –
16 | O=C(Nc1ccc(CN2CCOCC2)cc1)Nc1ccc2ncnc(Nc3cccc(C(F)(F)F)c3)c2c1 | 8.49 µM | 4.03 µM | –
17 | CCN(CC)c1ccc(NC(=O)Nc2ccc3ncnc(Nc4cccc(C(F)(F)F)c4)c3c2)cc1 | 6.46 µM | 3.52 µM | –
18 | CN1CCN(Cc2ccc(NC(=O)Nc3ccc4ncnc(Nc5ccc(F)c(F)c5)c4c3)cc2)CC1 | > 10 µM | > 10 µM | –
19 | C[C@@H](Nc1ncnc2ccc(NC(=O)NCCN3CCN(C)CC3)cc12)c1ccccc1 | > 10 µM | > 10 µM | –
20 | CN1CCN(C(=O)c2ccc(NC(=O)Nc3ccc4ncnc(Nc5ccc(OCc6cccc(F)c6)c(Cl)c5)c4c3)cc2)CC1 | > 10 µM | 7.39 µM | –
21 | COC(=O)c1cccc(Nc2ncnc3ccc(NC(=O)Nc4ccc(CN5CCN(C)CC5)cc4)cc23)c1 | 5.63 µM | > 10 µM | –
22 | C#Cc1cccc(Nc2ncnc3ccc(NC(=O)Nc4ccc(CN(CC)CC)cc4)cc23)c1 | 1.24 µM | 2.25 µM | –
23 | C#Cc1cccc(Nc2ncnc3ccc(NC(=O)Nc4ccc(CN5CCOCC5)cc4)cc23)c1 | > 10 µM | > 10 µM | –
24 | C#Cc1cccc(Nc2ncnc3ccc(NC(=O)Nc4ccc(C(=O)N5CCN(C)CC5)cc4)cc23)c1 | > 10 µM | > 10 µM | –
25 | CN1CCN(Cc2ccc(NC(=O)Nc3ccc4ncnc(Nc5cccc(C(=O)N6CCCC6)c5)c4c3)cc2)CC1 | > 10 µM | > 10 µM | –
26 | O=C(Nc1cccc(CN2CCCC2)c1)Nc1ccc2ncnc(Nc3cccc(C(F)(F)F)c3)c2c1 | 1.23 µM | 0.86 µM | –
27 | C#Cc1cccc(Nc2ncnc3ccc(NC(=O)Nc4ccc(CN5CCN(C)CC5)cc4)cc23)c1 | 2.81 µM | 5.17 µM | –
28 | CN1CCN(Cc2ccc(NC(=O)Nc3ccc4ncnc(Nc5ccc(F)c(Cl)c5)c4c3)cc2)CC1 | 4 µM | 3.48 µM | –
29 | O=C(Nc1ccccc1)Nc1ccc2ncnc(Nc3cccc(C(F)(F)F)c3)c2c1 | > 10 µM | > 10 µM | –
30 | COc1cc2ncnc(Nc3ccc(F)c(Cl)c3)c2cc1OCCCN1CCOCC1 [GEFITINIB] | – | – | Activity (A549 [5]): Active; Activity (Mus musculus): Non-toxic
31 | CCN(CC)Cc1ccc(NC(=O)Nc2ccc3ncnc(Nc4cccc(C(F)(F)F)c4)c3c2)cc1 | 3.98 µM | 2.07 µM | –
